Source: US10406227B2, “Photoactivated molecules for light-induced modulation of the activity of electrically excitable cells and methods of using same” (University of Southern California, priority 2012, dated 2019)
Entries after “also recorded” stand apart in the source; their conditions may differ.

Assays:
leech ganglion neurons = assay: Ex vivo leech ganglion neuron recording; assay type: cell-based, Hirudo verbana; settings: ex vivo ganglia
Procedure: Adult leeches Hirudo verbana will be obtained from Niagara Medical Leeches, Inc. (Westbury, N.Y., USA). Groups (20-30) of animals will be kept in glass aquaria with artificial pond water (36 mg/L Instant Ocean salts; Aquarium Systems, Mentor Ohio), in a temperature-controlled room at 16° C. and a 12:12 h light:dark cycle. At the time of experiments, leeches will weigh 1-3 g. Before dissection, the leech will be anesthetized in ice-cold leech saline. Leech saline has the following composition (in mM per liter): NaCl-115, KCl-4, CaCl2-1.8, MgCl2-2, HEPES-10, D-Glucose-5 (Sigma-Aldrich, USA). Individual ganglia will be dissected from the mid-body segments M6-M12, and pinned down in Sylgard-filled dissection box. Medial dorsal longitudinal incision will be made and the blood will be flushed away. Connective tissue and the blood vessel overlaying the ganglion chain will be incised. Dissected ganglia will be transferred to a Petri dish, pinned down in paraffin with six stainless steel pins (dorsal side up). PVNs will be microinjected into the extracellular space of the ganglion with a glass micropipette. Intracellular recording will be performed by penetrating the Retzius neurons with sharp glass electrodes (20-30 MOhm) filled with 3M potassium acetate. […] Neuronal firing will be recorded before and after the injections.

INS and HEK293T cells = assay: Time course of light-induced membrane potential change in single cells (patch clamp); assay type: cell-based
Procedure: Membrane potential was monitored using whole cell patch clamp in current-clamp mode. Cultured cells (INS and HEK293) were plated on a glass-bottomed culture dishes 1-3 days prior to recording. Cells were incubated in standard extracellular solution with or without 10 μM RubpyC17 compound for approximately 1.5-2 minutes, then washed and incubated with standard extracellular solution without additional supplementation, or with 2-5 mM ascorbate, 100 μM sodium ferrocyanide, or 100-200 μM potassium ferricyanide, as indicated. The chamber was transferred to the microscope stage. Extracellular solution consisted of 140 mM NaCl, 2.8 mM KCl, 10 mM HEPES, 1 mM MgCl2, 2 mM CaCl2, 10 mM glucose, pH adjusted to 7.3, and osmolarity adjusted to 300-310. Conventional whole-cell patch clamp recordings were performed with an EPC-9 amplifier and Pulse software (HEKA Electronics). Pipette electrodes of 1.8-3.5 Mohm were fire polished before use. Intracellular solution consisted of: 145 mM KCl, 10 mM NaCl, 1 mM MgCl2, 1 mM EGTA, 2 mM ATP, 0.3 mM GTP and 10 mM HEPES, pH adjusted to 7.3 and osmolarity adjusted to 290-300 mOsm. To monitor changes in membrane voltage/potential, cells were patch clamped in current-clamp mode. Access resistances were in the range of 3-8 Mohm. Using Pulse, membrane potentials were recorded before, during and after illumination by the argon ion laser at 488 nm with an irradiance value of 0.458 mE s^−1 m^−2 or by a xenon lamp source through a 470/40 nm bandpass excitation filter with an irradiance value of 0.480 mE s^−1 m^−2. The duration of illumination varied and the timing is indicated by bars on the figures.
It was discovered that luminescent cells undergo depolarization when illuminated for 25 seconds or longer when reductants (e.g., ascorbate) are present or for 10 seconds or longer when oxidants (e.g., ferricyanide) are present (FIG. 2A). Other oxidants or reductants are used in several embodiments, such as those that are, normally present (or biologically compatible) in the environment of a certain target tissue. In several embodiments, it is possible that light-induced depolarization or hyperpolarization amplitude or rate is controlled by varying illumination time or intensity.
To reach a maximum effect, the light-triggered depolarization in RubpyC17-treated cells requires on the order of 30 seconds of continuous illumination at 0.46-0.48 mE s−1 m2 (FIGS. 2B-F) The time course observed is dependent on several factors, and may be greater or lesser during in vivo applications. One, it is related to the probability of photon absorption per unit time by membrane-associated RubpyC17, which depends on the concentration of RubpyC17, the partitioning into the membrane, and the photon flux. […]

[1] = tested on: whole-mount retinas from RCS rats; assay: Whole-mount retina multi-electrode array recording; assay type: cell-based, rat
Source text: FIGS. 14A-14B depicts data from whole-mount retinas from RCS rats. […] Each bin represents the frequency of spikes for 1 second. Before Rubpy treatment (14A), illumination at 480 nm elicited minimal change in spike frequency. […] Downward arrows mark the time of 100 ms (1st) and 1 second (2nd to fourth) light stimuli.
The retina will be freshly dissected from Royal College of Surgeons (RCS) rats (9 months' or older to ensure total loss of photoreceptors). The whole-mount retina will then be placed onto a multi-electrode array with the ganglion cell layer side facing the electrodes and is held down on the array using a lightly weighted porous membrane. Extracellular field potentials are recorded from 15 or 75 μm diameter electrodes using an MEA1060-Up amplifier and MC Rack software (Multi-Channel Systems). The activity of the retinal in response to illumination is monitored before and after PVN incubation. The retina is continuously perfused with oxygenated (95% O2, 5% CO2), heated (32C) Ames' Medium for baseline activity. The retina is then perfused with Ames' Medium containing PVN for 30 min to 1 hr, followed by 10 min wash with regular Ames' Medium before recording in Ames' Medium with 5-10 mM ascorbate. The retina will be illuminated by white LED light through a bandpass excitation filter (460-500 nm) with durations of 100 μs, 1 ms, 10 ms, 100 ms, 1 s and 30 s. […]

[Ru(bpy)2(bpy-C17)](PF6)2 [RubpyC17]
light-induced action potential firing (leech ganglion neurons): respond to illumination by firing action potentials; also recorded: light-induced increases in action potential firing | continuous illumination to reach maximum depolarization (INS and HEK293T cells; 0.46-0.48 mE s−1 m2): ~30 s | illumination duration giving membrane potential change (INS and HEK293T cells; oxidants (e.g., ferricyanide) present): ≥ 10 s | reversibility of light-induced depolarization (INS and HEK293T cells; presence of reductants): appears to be irreversible | illumination duration giving membrane potential change (INS and HEK293T cells; reductants (e.g., ascorbate) present): ≥ 25 s | spike frequency on illumination ([1]; 100 micromolar for 30 minutes, 480 nm): spike frequency increased | light-induced action potential firing ([1]; photoreceptor-degenerate retina): respond to illumination by firing action potentials
